Data reported in ChEMBL document CHEMBL3217704, “Combination of biotransformation by P450 BM3 mutants with on-line post-column bioaffinity and mass spectrometric profiling as a novel strategy to diversify and characterize p38 kinase inhibitors” (Medchemcomm, 2013).

Target: Mitogen-activated protein kinase 14 (Homo sapiens, UniProt Q16539)
Assay: Displacement of SKF86002 from recombinant human p38alpha by fluorescence-based assay; call rule not given here

Mitogen-activated protein kinase 14, sequence (Q16539 whole entry): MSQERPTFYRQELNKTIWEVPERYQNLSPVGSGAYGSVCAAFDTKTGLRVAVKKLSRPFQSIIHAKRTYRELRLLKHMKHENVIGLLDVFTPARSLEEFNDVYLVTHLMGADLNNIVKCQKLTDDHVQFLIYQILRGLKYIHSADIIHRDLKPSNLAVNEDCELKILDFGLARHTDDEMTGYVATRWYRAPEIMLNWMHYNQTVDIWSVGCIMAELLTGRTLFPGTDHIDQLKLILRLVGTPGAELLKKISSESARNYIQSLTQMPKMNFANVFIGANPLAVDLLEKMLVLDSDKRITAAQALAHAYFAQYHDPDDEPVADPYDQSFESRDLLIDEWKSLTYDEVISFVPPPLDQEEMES

Row | Structure (SMILES) | IC50 (read-out: IC50) | IC50
1 | CCc1nc(-c2cccc(CO)c2)c(-c2ccnc(NC(=O)c3ccccc3)c2)s1 | 310 nM | 
2 | CC(O)c1nc(-c2cccc(C(=O)O)c2)c(-c2ccnc(NC(=O)c3ccccc3)c2)s1 (stereo not given) |  | Not Active
3 | CCc1nc(-c2cccc(C(=O)O)c2)c(-c2ccnc(NC(=O)c3ccccc3)c2)s1 | 1500 nM | 
4 | CC(O)c1nc(-c2cccc(CO)c2)c(-c2ccnc(NC(=O)c3ccccc3)c2)s1 (stereo not given) | 460 nM | 
5 | Cc1cccc(-c2nc(C(C)O)sc2-c2ccnc(NC(=O)c3ccccc3)c2)c1 (stereo not given) | 38 nM | 
